Here are results for two molecules from patent US12285503B2, “Methods and reagents for tumor targeting with greater efficacy and less toxicity” (CORNELL UNIVERSITY, priority 2017, dated 2025).

Data set [1] has as its target T1, PSMA (Homo sapiens, UniProt Q04609).
T1 construct: when treating prostate cancer patients with PSMA-617-Ac^225 has been reported; host or cells: prostate cancer patients (Kratochwil et al., J. Nucl. Med. 2017)
The note with it: cited from earlier work.

The subject of a further data set is LNCaP cells. In words: Internalization assay, LNCaP cells. Format: cell-based. The note with it: 1 hour at 37° C. The procedure:
(§1) Internalization assay. LNCaP and CWR22Rv1 cells were trypsinized and aliquoted into tubes at 1×10^6 cells per tube. Cells were washed once with RPMI (no FBS). ^177Lu-J591 (150,000 CPM) in […] RPMI (no FBS) per tube and/or ^177Lu-PSMA-617 (110,000 CPM) was added in […] RPMI (no FBS) per tube. The samples were incubated for 1 hour at 37° C., with the cells re-suspended every 15 minutes. After incubation, the cells were washed twice with 0.1% BSA/PBS to remove unbound/un-internalized binding agents. Samples were counted.

The next data set relates to CWR22Rv1 cells. In words: Internalization assay, CWR22Rv1 cells. Format: cell-based. The conditions noted are these: 1 hour at 37° C. The procedure: as §1
The target in data set [2] is T1, PSMA. In words: PSA declines as indication of anti-tumor activity in patients. Format: in vivo. An excerpt: J591-Lu^177 begins to induce PSA declines, as an indication of anti-tumor activity, at an administered ^177Lu dose of ≤30 mCi/m^2 given twice at a 2 week interval. As the dose is increased to 140, 160 and 180 mCi [total], the magnitude of the PSA/anti-tumor response gets progressively greater.
PSMA-617/ligand-Lu^177 begins to induce PSA declines at an administered cumulative ^177Lu dose of 300 mCi (11.1 Gbq) given in a 2-dose regimen at a 2 week interval (150 mCi×2). As the dose is increased to 2-dose totals of 400-500 mCi (14.8-18.5 GBq), the magnitude of the PSA/anti-tumor response gets progressively greater.

In data set [3] the target is T1, PSMA. In words: Normal tissue bio-distribution / organ radioactive dose of PSMA-targeting agents in patients. Format: in vivo. An excerpt: While the two different classes of agents both bind to their target (e.g., PSMA, SSTR-2, CD20, etc)-expressing tumor cells, the normal tissues that get targeted differs between classes of agents. As an example, PSMA is expressed not only by prostate cancer cells but also by the normal parotid and other salivary glands, lacrimal glands, kidney and small bowel (See FIGS. 4-7). […] With both types of agents, the tumor sites are targeted, but the normal tissues that are targeted are different and virtually mutually exclusive.

For data set [4] the following is noted: limit to the kidney and salivary glands; cited from earlier work.

T1 sequence (Q04609 whole entry): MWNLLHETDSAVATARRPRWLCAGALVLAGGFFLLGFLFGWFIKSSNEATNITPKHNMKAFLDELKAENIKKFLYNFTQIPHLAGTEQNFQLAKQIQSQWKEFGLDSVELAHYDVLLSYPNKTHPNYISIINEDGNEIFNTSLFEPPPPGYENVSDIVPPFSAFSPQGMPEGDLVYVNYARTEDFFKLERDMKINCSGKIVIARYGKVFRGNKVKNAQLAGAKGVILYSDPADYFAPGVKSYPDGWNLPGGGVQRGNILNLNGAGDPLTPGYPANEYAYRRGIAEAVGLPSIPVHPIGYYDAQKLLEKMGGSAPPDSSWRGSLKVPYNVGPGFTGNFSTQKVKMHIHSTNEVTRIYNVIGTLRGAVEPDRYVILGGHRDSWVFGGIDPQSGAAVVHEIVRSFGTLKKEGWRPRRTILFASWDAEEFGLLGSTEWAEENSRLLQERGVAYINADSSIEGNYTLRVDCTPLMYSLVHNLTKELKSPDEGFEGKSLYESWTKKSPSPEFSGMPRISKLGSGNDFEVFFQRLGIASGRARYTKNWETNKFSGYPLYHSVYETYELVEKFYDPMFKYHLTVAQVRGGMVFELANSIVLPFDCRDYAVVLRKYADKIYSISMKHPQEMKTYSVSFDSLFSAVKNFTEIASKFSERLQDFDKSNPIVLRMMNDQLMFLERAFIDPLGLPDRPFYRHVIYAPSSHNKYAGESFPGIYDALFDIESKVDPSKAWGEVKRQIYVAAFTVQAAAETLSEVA

For the molecule `O=C([O-])CC[C@H](NC(=O)N[C@@H](CCCCNC(=O)[C@H](Cc1ccc2ccccc2c1)NC(=O)C1CCC(CNC(=O)CN2CCN(CC(=O)[O-])CCN(CC(=O)[O-])CCN(CC(=O)[O-])CC2)CC1)C(=O)[O-])C(=O)[O-].[225Ac].[H+].[H+].[H+]` (stereo partly shown) [PSMA-617-Ac^225], on PSMA [1] (human, in vivo), the tolerable dose is recorded as 100 Kbq/kg and the “treatment activity above which severe xerostomia becomes the dose-limiting toxicity” value was “exceeded 100 kBq/kg per cycle”. For the same molecule, on PSMA [1] (treatment activity 50 kBq/kg, patients with high tumor burden), the anti-tumor response entry is on record as “insufficient anti-tumor response”. Moreover, at PSMA [1] (treatment activity 50 kBq/kg), the toxicity entry is listed as “without toxicity”.
Take `O=C([O-])CN1CCN(CC(=O)[O-])CCN(CC(=O)NCC2CCC(C(=O)N[C@@H](Cc3ccc4ccccc4c3)C(=O)NCCCC[C@H](NC(=O)N[C@@H](CCC(=O)O)C(=O)O)C(=O)O)CC2)CCN(CC(=O)[O-])CC1.[177Lu+3]` (stereo partly shown) [PSMA-617-^177Lu]: the 177Lu internalization result in the data set on LNCaP cells and with CWR22Rv1 cells was “internalized to a similar degree” each time. In addition, the results for the “administered cumulative 177Lu dose at which PSA declines begin” value at PSMA [2] (2-dose regimen at a 2 week interval) and at PSMA [2] (2-dose regimen at a 2 week interval (150 mCi×2)) were 11.1 Gbq and 300 mCi, respectively. Also, the “dose to the bone marrow / thrombocytopenia” value on PSMA [3] is on record as “does not cause thrombocytopenia”. Moreover, the “maximum safe cumulative dose” value in data set [4] is on record as 27-30 Gbq.
